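1) Cells in 96-well plates. 2) Compound, 48 h, 5 concentrations. 3) Linear interpolation between surrounding doses. 4) Unreached endpoint = highest concentration. GI50 marks 50% less growth.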 Active and inactive are the calls of the source. No stated cut-off is given here; in the data, active = GI50 up to about 1.1 µM and inactive = higher.
Assays:
Assay in all cases: DTP human tumour cell line panel, 48 h
RXF 631 = tested on: RXF 631
SNB-78 = tested on: SNB-78
HOP-18 = tested on: HOP-18
XF498 = tested on: XF498
DLD-1 = tested on: DLD-1
DMS-114 = tested on: DMS-114
DMS-273 = tested on: DMS-273
M19-MEL = tested on: M19-MEL

Measured: GI50

Cc1cccc(Cl)c1NC(=O)c1cccc([N+](=O)[O-])c1O
inactive: RXF 631 36.7 µM | SNB-78 71 µM | HOP-18 28.5 µM | XF498 32.2 µM | DLD-1 31.7 µM | DMS-114 25.8 µM | DMS-273 37.2 µM

O=c1cccccc1NCCNc1cccccc1=O
inactive: RXF 631 > 100 µM | SNB-78 > 100 µM | XF498 > 100 µM | DLD-1 > 10 µM | M19-MEL > 100 µM | DMS-114 > 100 µM | DMS-273 > 100 µM

O=C(NCCNCCO)N/N=C/c1ccccc1
inactive: SNB-78 > 100 µM | HOP-18 > 100 µM | XF498 > 100 µM | DLD-1 > 100 µM | DMS-114 > 100 µM | DMS-273 > 100 µM

CCOC(=O)NC(=O)c1cn(C2OC(COC(=O)CCCCCCCCC(=O)OCC3OC(n4cc(C(=O)NC(=O)OCC)c(=O)[nH]c4=O)C4OC(C)(C)OC34)C3OC(C)(C)OC32)c(=O)[nH]c1=O (stereo not given)
inactive: RXF 631 > 100 µM | SNB-78 > 100 µM | HOP-18 > 100 µM | XF498 67.1 µM | DLD-1 > 100 µM | M19-MEL 26.9 µM | DMS-114 93.1 µM | DMS-273 60.1 µM

Cc1csc(=S)n1OC(=O)NC1CCCCC1
inactive: SNB-78 97.7 µM | XF498 > 100 µM | DLD-1 55.5 µM | M19-MEL 16.5 µM | DMS-114 12.3 µM | DMS-273 > 49.4 µM

CCOC(=O)C(Cc1c[nH]c2cc([N+](=O)[O-])ccc12)NS(=O)(=O)c1ccc2ccccc2c1 (stereo not given)
inactive: SNB-78 20.7 µM | HOP-18 29.5 µM | XF498 17.3 µM | DLD-1 23.7 µM | M19-MEL 17.2 µM | DMS-114 19.7 µM | DMS-273 17.5 µM

Cn1cc(NC(=O)c2cc(NC(=O)CCCCCCCCC(=O)Nc3cc(C(=O)Nc4cc(C(=O)NCCC(N)N)n(C)c4)n(C)c3)cn2C)cc1C(=O)NCCC(=N)N
inactive: RXF 631 26.9 µM | SNB-78 34.6 µM | HOP-18 25.9 µM | XF498 28.6 µM | DLD-1 25.5 µM | M19-MEL 16.6 µM | DMS-273 17.1 µM

Cc1cccc(NC(=O)C(=O)C(C(=O)c2ccc3ccccc3c2)C2OC(=O)c3ccccc32)c1C (stereo not given)
inactive: RXF 631 7.19 µM | SNB-78 16.1 µM | XF498 1.56 µM | DLD-1 14.8 µM | M19-MEL 9.91 µM | DMS-114 7.67 µM | DMS-273 13.8 µM

CCOc1ccc(NC2=NC(=O)C(CC(=O)Nc3ccccc3[N+](=O)[O-])S2)cc1 (stereo not given)
inactive: SNB-78 > 100 µM | XF498 > 100 µM | DLD-1 > 100 µM | M19-MEL > 100 µM | DMS-114 > 100 µM | DMS-273 > 100 µM

CO[C@@]12CC(=O)/C(=C(O)\C=C\c3ccccc3)C(=O)[C@]1(OC)Cc1ccccc1O2
inactive: RXF 631 30.3 µM | SNB-78 30.5 µM | HOP-18 35.6 µM | XF498 43 µM | DLD-1 32.2 µM | M19-MEL 37.5 µM | DMS-114 44.8 µM

CCNC1C2(CCCCC2)NC(=O)C12CCCCC2 (stereo not given)
inactive: SNB-78 > 100 µM | XF498 > 100 µM | DLD-1 > 100 µM | M19-MEL > 100 µM | DMS-114 > 100 µM | DMS-273 > 100 µM

CCOC(=O)NC(=O)c1cn(CCOC(=O)CCCCCCCCC(=O)OCCn2cc(C(=O)NC(=O)OCC)c(=O)[nH]c2=O)c(=O)[nH]c1=O
inactive: RXF 631 > 100 µM | SNB-78 > 100 µM | HOP-18 > 100 µM | XF498 > 100 µM | DLD-1 > 100 µM | M19-MEL > 100 µM | DMS-114 > 100 µM | DMS-273 > 100 µM

O=[As](O)(O)c1cc(/N=N/c2ccc(-c3ccc(/N=N/c4cc([As](=O)(O)O)c(O)cc4O)cc3)cc2)c(O)cc1O
inactive: RXF 631 > 100 µM | SNB-78 > 100 µM | HOP-18 > 100 µM | DLD-1 > 43 µM | M19-MEL > 100 µM | DMS-114 > 80.4 µM | DMS-273 > 100 µM

Cc1cc(C)n(-c2ccnc3cc(Cl)ccc23)n1
inactive: SNB-78 > 100 µM | HOP-18 > 100 µM | XF498 > 100 µM | DLD-1 > 100 µM | M19-MEL > 100 µM | DMS-114 > 100 µM | DMS-273 > 100 µM

C/N=c1\ss/c(=N\C(=S)N(C)C)n1C
inactive: SNB-78 > 100 µM | HOP-18 > 100 µM | XF498 > 100 µM | DLD-1 > 100 µM | M19-MEL > 100 µM | DMS-114 > 100 µM | DMS-273 > 100 µM

COc1cc2ccc3c4cc(OC)c(OC(C)C)cc4cnc3c2cc1OC
inactive: RXF 631 > 100 µM | SNB-78 > 100 µM | HOP-18 > 100 µM | DLD-1 > 100 µM | M19-MEL > 100 µM | DMS-114 > 100 µM

COC1=CCC=C(C[C@@H]2NCCc3cc(OC)c(OC)cc32)C1
inactive: SNB-78 > 100 µM | XF498 > 100 µM | DLD-1 > 100 µM | M19-MEL > 100 µM | DMS-273 > 100 µM

COC(=O)C1=C(C)N(NC(=O)c2cccc(Cl)c2)C(C)(O)C12CCOC2=O (stereo not given)
inactive: RXF 631 > 100 µM | SNB-78 42.1 µM | XF498 > 100 µM | M19-MEL > 100 µM | DMS-114 > 100 µM | DMS-273 > 100 µM
